According to patent publication US11622984B2, “Composition comprising aster sphathulifolius maxim extract for preventing, improving, or treating muscular diseases or for improving muscular functions” (NEWTREE CO., LTD., priority 2018, dated 2023):

Experiments:
Format in all cases: in vivo, C57BL/6 mice
[1] = test system: muscle atrophy mouse model; assay: Muscle tissue weight in leg-immobilization muscle atrophy mouse model
Procedure: (§1) An animal experiment was conducted to confirm whether an Aster spathulifolius extract improved muscle atrophy in a muscle atrophy mouse model. Five-week-old male C57BL/6 mice were adapted to an animal laboratory environment for one week, and then divided into five groups according to an experimental condition, and immobilization of the legs to induce muscle atrophy and oral administration of samples were performed for two weeks. Specifically, experimental groups were divided into an untreated control group (normal group, Cont), a muscle atrophy induced group (induction group, IM), a positive control group (HMB administered group, HMB 370) induced with muscle atrophy and administered with beta-hydroxy beta-methylbutyrate (HMB) (370 mg/kg), a group (Aster spathulifolius low-dose administered group, AS 100) induced with muscle atrophy and administered with a low dose (100 mg/kg) of Aster spathulifolius extract, and a group (Aster spathulifolius high-dose administered group, AS 200) induced with muscle atrophy and administered with a high dose (200 mg/kg) of Aster spathulifolius extract. Immobilization of the legs was performed by applying a fixing tool manufactured by using a 1.5 ml microfuge tube, clips, and a Velcro tape as shown in References (Disease models & mechanisms, 8(9), 1059-1069, 2015) to one hind leg of the mouse. All samples were dissolved in 0.5% carboxymethylcellulose (CMC) and orally administered once a day for 14 days from a day of application of leg fixation. After 2 weeks of leg fixation and oral administration of the sample, the gastrocnemius and the quadriceps of one hind leg were extracted, and the weights thereof were measured, normalized in proportion to the body weight, and then compared and shown in FIG. 1. As a result, compared to the normal group (Cont), the induction group (IM) induced muscle atrophy, resulting in a weight loss of about 40% in the gastrocnemius and about 33% in the quadriceps in proportion to the body weight. In the HMB-administered group (HMB 370), as the positive control group, the gastrocnemius decreased by about 24% and the quadriceps decreased by about 17%, showing about 16% and 16% of a muscle atrophy protective ability, respectively. On the other hand, in the low-dose group of Aster spathulifolius (AS 100), the gastrocnemius decreased by about 27% and the quadriceps decreased by about 22%. In the high-dose group of Aster spathulifolius (AS 200), the gastrocnemius decreased by about 25% and the quadriceps decreased by about 18%.

atrogin-1 = assay: qRT-PCR mRNA expression in gastrocnemius of muscle atrophy mouse model; settings: 370 mg/kg oral, 14 days, induction group about three times
Procedure: (§2) An animal experiment was conducted to confirm whether an Aster spathulifolius extract improved muscle atrophy in a muscle atrophy mouse model. Five-week-old male C57BL/6 mice were adapted to an animal laboratory environment for one week, and then divided into five groups according to an experimental condition, and immobilization of the legs to induce muscle atrophy and oral administration of samples were performed for two weeks. […] After 2 weeks of leg fixation and oral administration of the sample, the gastrocnemius and the quadriceps of one hind leg were extracted, and the weights thereof were measured, normalized in proportion to the body weight, and then compared and shown in FIG. 1. […]
(§3) To confirm whether the Aster spathulifolius extract improved the mRNA expression levels of muscle atrophy-related factors, muscle ring finger-1 (MuRF-1) and Atrogin-1, in a muscle atrophy mouse model, quantitative real-time PCR (qRT-PCR) was performed. […]

murf-1 = assay: as above; settings: 370 mg/kg oral, 14 days, induction group about 3 times
Procedure: as §2, §3

[2] = test system: muscle atrophy mouse model; assay: Cross-sectional area of muscle fibers (H&E staining, image J) in muscle atrophy mouse model; settings: 370 mg/kg oral, 14 days
Procedure: as §1
Histological analysis was conducted to confirm whether an Aster spathulifolius extract improved the reduction in cross-sectional area of muscle fibers in a muscle atrophy mouse model. The gastrocnemius and quadriceps tissues extracted in Example 2 above were fixed with 4% paraformaldehyde and then subjected to hematoxylin and eosin staining (H&E staining), and thereafter, the cross-sectional area of the dyed muscle fibers was quantified through image J software, and the results were shown in FIGS. 2 and 3.

p-mTOR = assay: Western blot protein expression in gastrocnemius of muscle atrophy mouse model; settings: 370 mg/kg oral, 14 days
Procedure: as §2, with “weeks. Specifically, experimental groups were divided into an untreated control group (normal group, Cont), a muscle atrophy induced group (induction group, IM), a positive control group (HMB administered group, HMB 370) induced with muscle atrophy and administered with beta-hydroxy beta-methylbutyrate (HMB) (370 mg/kg), a group (Aster spathulifolius low-dose administered group, AS 100) induced with muscle atrophy and administered with a low dose (100 mg/kg) of Aster spathulifolius extract, and a group (Aster spathulifolius high-dose administered group, AS 200) induced with muscle atrophy and administered with a high dose (200 mg/kg) of Aster spathulifolius extract.” for “weeks.”

Compound: CC(C)(O)CC(=O)O [HMB, beta-hydroxy beta-methylbutyrate]
- quadriceps weight decrease in proportion to body weight vs normal group ([1]; 370 mg/kg oral once a day, 14 days leg fixation, induction group about 33%): about 17%
- gastrocnemius weight decrease in proportion to body weight vs normal group ([1]; 370 mg/kg oral once a day, 14 days leg fixation, induction group about 40%): about 24%
- muscle atrophy protective ability (muscle weight), gastrocnemius ([1]; 370 mg/kg oral, 14 days): about 16%
- muscle atrophy protective ability (muscle weight), quadriceps ([1]; 370 mg/kg oral, 14 days): about 16%
- atrogin-1 gene expression relative to normal group (atrogin-1): about 1.3 times
- murf-1 gene expression relative to normal group (murf-1): about 1.7 times
- protective ability against the cross-sectional area of muscle fibers, gastrocnemius [2]: 17%
- protective ability against the cross-sectional area of muscle fibers, quadriceps [2]: 19%
- reduction in muscle fiber size (H&E staining) ([2]; both muscle tissues): the reduction in muscle fiber size was alleviated
- decrease of cross-sectional area of muscle fiber vs normal group, quadriceps ([2]; induction group about 47%): about 28%
- decrease of cross-sectional area of muscle fiber vs normal group, gastrocnemius ([2]; induction group about 50%): about 33%
- p-mTOR protein expression (p-mTOR): large increase
